Test results from patent US7118895B2, “Process for producing aglycon by using diglycosidase and flavor-improved food containing the aglycon and converting agent to be used in the process” (Amano Enzyme Inc., priority 2000, dated 2006).

System: Crude diglycosidase
Test: Examination of temperature in the conversion into isoflavone aglycons by diglycosidase using soybean materials
Assay type: biochemical, Penicillium multicolor IAM7153
Design: Decomposition efficiency of glycitin family in roasted soy flour / Decomposition efficiency of daidzin family in roasted soy flour / Decomposition efficiency of genistin family in soymilk / Decomposition efficiency of daidzin family in soymilk / Decomposition efficiency of glycitin family in defatted soybean / Decomposition efficiency of daidzin family in defatted soybean: concentration or dose not given beside the values
Procedure: Into 400 μL of 20 mM acetate buffer of pH 4.0 was suspended 50 mg of each of various soybean materials (roasted soy flour (manufactured by Fuji Shokuryo K.K.), soymilk (manufactured by Gitoh Shokuhin K.K.), defatted soybean (manufactured by Fuji Seiyu K.K.), concentrated soybean protein (manufactured by Fuji Seiyu K.K.)), whereby a substrate solution was prepared. Crude diglycosidase was diluted with 20 mM acetate buffer of pH 4.0 to be the glycosidase activity of 1.88 AU/mL. Fifty μL of the enzyme solution was mixed with the substrate solution and the whole was reacted at 80, 65, 55, 45, 37, or 30° C. at the total volume of 500 μL. To the reaction mixture was added 700 μL of ethanol after 0, 1, 3, and 6 hours of the reaction. After stirring and ultrasonication, the mixture was subjected to centrifugal separation at 15,000 rpm and 4° C. for 10 minutes. The supernatant was filtered through a filter and the existence of isoflavone glycosides and aglycon isoflavones contained in the reaction mixture was detected by HLPC.

[1] = 30° C., heat treatment of enzyme no, reaction time 0 h
[2] = 30° C., heat treatment of enzyme no, reaction time 1 h
[3] = 30° C., heat treatment of enzyme no, reaction time 3 h
[4] = 30° C., heat treatment of enzyme no, reaction time 6 h
[5] = 30° C., heat treatment of enzyme yes, reaction time 6 h
[6] = 45° C., heat treatment of enzyme no, reaction time 0 h
[7] = 45° C., heat treatment of enzyme no, reaction time 1 h
[8] = 45° C., heat treatment of enzyme no, reaction time 3 h
[9] = 45° C., heat treatment of enzyme no, reaction time 6 h
[10] = 45° C., heat treatment of enzyme yes, reaction time 6 h
[11] = 45 °C, heat treatment of enzyme: no, 0 h
[12] = 45 °C, heat treatment of enzyme: no, 1 h
[13] = 45 °C, heat treatment of enzyme: no, 3 h
[14] = 45 °C, heat treatment of enzyme: no, 6 h
[15] = 45 °C, heat treatment of enzyme: yes, 6 h
[16] = 55° C., heat treatment of enzyme no, reaction time 0 h
[17] = 55° C., heat treatment of enzyme no, reaction time 1 h
[18] = 55° C., heat treatment of enzyme no, reaction time 3 h
[19] = 55° C., heat treatment of enzyme no, reaction time 6 h
[20] = 55° C., heat treatment of enzyme yes, reaction time 6 h
[21] = 55 °C, heat treatment of enzyme: no, 0 h
[22] = 55 °C, heat treatment of enzyme: no, 1 h
[23] = 55 °C, heat treatment of enzyme: no, 3 h
[24] = 55 °C, heat treatment of enzyme: no, 6 h
[25] = 55 °C, heat treatment of enzyme: yes, 6 h
[26] = 65° C., heat treatment of enzyme no, reaction time 0 h
[27] = 65° C., heat treatment of enzyme no, reaction time 1 h
[28] = 65° C., heat treatment of enzyme no, reaction time 3 h
[29] = 65° C., heat treatment of enzyme no, reaction time 6 h
[30] = 65° C., heat treatment of enzyme yes, reaction time 6 h
[31] = 65 °C, heat treatment of enzyme: no, 0 h
[32] = 65 °C, heat treatment of enzyme: no, 1 h
[33] = 65 °C, heat treatment of enzyme: no, 3 h
[34] = 65 °C, heat treatment of enzyme: no, 6 h
[35] = 65 °C, heat treatment of enzyme: yes, 6 h
[36] = 80° C., heat treatment of enzyme no, reaction time 0 h
[37] = 80° C., heat treatment of enzyme no, reaction time 1 h
[38] = 80° C., heat treatment of enzyme no, reaction time 3 h
[39] = 80° C., heat treatment of enzyme no, reaction time 6 h
[40] = 80° C., heat treatment of enzyme yes, reaction time 6 h
[41] = 80 °C, heat treatment of enzyme: no, 0 h
[42] = 80 °C, heat treatment of enzyme: no, 1 h
[43] = 80 °C, heat treatment of enzyme: no, 3 h
[44] = 80 °C, heat treatment of enzyme: no, 6 h
[45] = 80 °C, heat treatment of enzyme: yes, 6 h

CC(=O)OC[C@H]1O[C@@H](Oc2ccc3c(=O)c(-c4ccc(O)cc4)coc3c2)[C@H](O)[C@@H](O)[C@@H]1O [acetyldaidzin, 6″-O-acetyldaidzin]
Decomposition efficiency of daidzin family in concentrated soybean protein [1]: 44.6%
Decomposition efficiency of daidzin family in defatted soybean [1]: not detected
Decomposition efficiency of daidzin family in concentrated soybean protein [2]: 44.4%
Decomposition efficiency of daidzin family in defatted soybean [2]: not detected
Decomposition efficiency of daidzin family in concentrated soybean protein [3]: 43.9%
Decomposition efficiency of daidzin family in defatted soybean [3]: not detected
Decomposition efficiency of daidzin family in concentrated soybean protein [4]: 43.5%
Decomposition efficiency of daidzin family in defatted soybean [4]: not detected
Decomposition efficiency of daidzin family in concentrated soybean protein [5]: 42.3%
Decomposition efficiency of daidzin family in defatted soybean [5]: not detected
Decomposition efficiency of daidzin family in soymilk (30 °C, heat treatment of enzyme: no, 0 h): not detected
Decomposition efficiency of daidzin family in soymilk (30 °C, heat treatment of enzyme: no, 1 h): not detected
Decomposition efficiency of daidzin family in soymilk (30 °C, heat treatment of enzyme: no, 3 h): not detected
Decomposition efficiency of daidzin family in soymilk (30 °C, heat treatment of enzyme: no, 6 h): not detected
Decomposition efficiency of daidzin family in soymilk (30 °C, heat treatment of enzyme: yes, 6 h): not detected
Decomposition efficiency of daidzin family in roasted soy flour (35 °C, heat treatment of enzyme: no, 0 h): 47.8%
Decomposition efficiency of daidzin family in roasted soy flour (35 °C, heat treatment of enzyme: no, 1 h): 46.9%
Decomposition efficiency of daidzin family in roasted soy flour (35 °C, heat treatment of enzyme: no, 3 h): 45.3%
Decomposition efficiency of daidzin family in roasted soy flour (35 °C, heat treatment of enzyme: no, 6 h): 39.6%
Decomposition efficiency of daidzin family in roasted soy flour (35 °C, heat treatment of enzyme: yes, 6 h): 43.8%
Decomposition efficiency of daidzin family in concentrated soybean protein [6]: 44.5%
Decomposition efficiency of daidzin family in defatted soybean [6]: not detected
Decomposition efficiency of daidzin family in concentrated soybean protein [7]: 44.1%
Decomposition efficiency of daidzin family in defatted soybean [7]: not detected
Decomposition efficiency of daidzin family in concentrated soybean protein [8]: 41.5%
Decomposition efficiency of daidzin family in defatted soybean [8]: not detected
Decomposition efficiency of daidzin family in concentrated soybean protein [9]: 42.9%
Decomposition efficiency of daidzin family in defatted soybean [9]: not detected
Decomposition efficiency of daidzin family in concentrated soybean protein [10]: 0.0%
Decomposition efficiency of daidzin family in defatted soybean [10]: not detected
Decomposition efficiency of daidzin family in roasted soy flour [11]: 47.7%
Decomposition efficiency of daidzin family in soymilk [11]: not detected
Decomposition efficiency of daidzin family in roasted soy flour [12]: 42.9%
Decomposition efficiency of daidzin family in soymilk [12]: not detected
Decomposition efficiency of daidzin family in roasted soy flour [13]: 37.9%
Decomposition efficiency of daidzin family in soymilk [13]: not detected
Decomposition efficiency of daidzin family in roasted soy flour [14]: 28.5%
Decomposition efficiency of daidzin family in soymilk [14]: not detected
Decomposition efficiency of daidzin family in roasted soy flour [15]: 42.5%
Decomposition efficiency of daidzin family in soymilk [15]: not detected
Decomposition efficiency of daidzin family in concentrated soybean protein [16]: 44.5%
Decomposition efficiency of daidzin family in defatted soybean [16]: not detected
Decomposition efficiency of daidzin family in concentrated soybean protein [17]: 44.0%
Decomposition efficiency of daidzin family in defatted soybean [17]: not detected
Decomposition efficiency of daidzin family in concentrated soybean protein [18]: 40.6%
Decomposition efficiency of daidzin family in defatted soybean [18]: not detected
Decomposition efficiency of daidzin family in concentrated soybean protein [19]: 37.7%
Decomposition efficiency of daidzin family in defatted soybean [19]: not detected
Decomposition efficiency of daidzin family in concentrated soybean protein [20]: 42.3%
Decomposition efficiency of daidzin family in defatted soybean [20]: not detected
Decomposition efficiency of daidzin family in roasted soy flour [21]: 47.5%
Decomposition efficiency of daidzin family in soymilk [21]: not detected
Decomposition efficiency of daidzin family in roasted soy flour [22]: 42.8%
Decomposition efficiency of daidzin family in soymilk [22]: not detected
Decomposition efficiency of daidzin family in roasted soy flour [23]: 32.5%
Decomposition efficiency of daidzin family in soymilk [23]: not detected
Decomposition efficiency of daidzin family in roasted soy flour [24]: 26.7%
Decomposition efficiency of daidzin family in soymilk [24]: not detected
Decomposition efficiency of daidzin family in roasted soy flour [25]: 43.6%
Decomposition efficiency of daidzin family in soymilk [25]: not detected
Decomposition efficiency of daidzin family in concentrated soybean protein [26]: 44.6%
Decomposition efficiency of daidzin family in defatted soybean [26]: not detected
Decomposition efficiency of daidzin family in concentrated soybean protein [27]: 44.3%
Decomposition efficiency of daidzin family in defatted soybean [27]: not detected
Decomposition efficiency of daidzin family in concentrated soybean protein [28]: 42.9%
Decomposition efficiency of daidzin family in defatted soybean [28]: not detected
Decomposition efficiency of daidzin family in concentrated soybean protein [29]: 41.6%
Decomposition efficiency of daidzin family in defatted soybean [29]: not detected
Decomposition efficiency of daidzin family in concentrated soybean protein [30]: 43.6%
Decomposition efficiency of daidzin family in defatted soybean [30]: not detected
Decomposition efficiency of daidzin family in roasted soy flour [31]: 47.8%
Decomposition efficiency of daidzin family in soymilk [31]: not detected
Decomposition efficiency of daidzin family in roasted soy flour [32]: 43.7%
Decomposition efficiency of daidzin family in soymilk [32]: not detected
Decomposition efficiency of daidzin family in roasted soy flour [33]: 40.2%
Decomposition efficiency of daidzin family in soymilk [33]: not detected
Decomposition efficiency of daidzin family in roasted soy flour [34]: 37.8%
Decomposition efficiency of daidzin family in soymilk [34]: not detected
Decomposition efficiency of daidzin family in roasted soy flour [35]: 46.1%
Decomposition efficiency of daidzin family in soymilk [35]: not detected
Decomposition efficiency of daidzin family in concentrated soybean protein [36]: 44.5%
Decomposition efficiency of daidzin family in defatted soybean [36]: not detected
Decomposition efficiency of daidzin family in concentrated soybean protein [37]: 45.5%
Decomposition efficiency of daidzin family in defatted soybean [37]: not detected
Decomposition efficiency of daidzin family in concentrated soybean protein [38]: 44.7%
Decomposition efficiency of daidzin family in defatted soybean [38]: not detected
Decomposition efficiency of daidzin family in concentrated soybean protein [39]: 43.8%
Decomposition efficiency of daidzin family in defatted soybean [39]: not detected
Decomposition efficiency of daidzin family in concentrated soybean protein [40]: 42.3%
Decomposition efficiency of daidzin family in defatted soybean [40]: not detected
Decomposition efficiency of daidzin family in roasted soy flour [41]: 47.7%
Decomposition efficiency of daidzin family in soymilk [41]: not detected
Decomposition efficiency of daidzin family in roasted soy flour [42]: 49.1%
Decomposition efficiency of daidzin family in soymilk [42]: not detected
Decomposition efficiency of daidzin family in roasted soy flour [43]: 47.9%
Decomposition efficiency of daidzin family in soymilk [43]: not detected
Decomposition efficiency of daidzin family in roasted soy flour [44]: 46.7%
Decomposition efficiency of daidzin family in soymilk [44]: not detected
Decomposition efficiency of daidzin family in roasted soy flour [45]: 45.0%
Decomposition efficiency of daidzin family in soymilk [45]: not detected
